# Measured values taken from ChEMBL document CHEMBL3885881, “DrugMatrix”.
# Organism: Rattus norvegicus
# Assay: DrugMatrix - Regimen: Daily Repeat
# Type: toxicity, organism-based, Sprague-Dawley
# Parameters: regimen Daily Repeat, gender Male, age 6-8 weeks
# Conditions: in vivo, po, route oral GAVAGE, vehicle .5 % CMC; for ABSOLUTE BASOPHIL / ABSOLUTE EOSINOPHIL / ABSOLUTE LYMPHOCYTE / ABSOLUTE MONOCYTE / ABSOLUTE SEGMENTED NEUTROPHIL / BASOPHIL / EOSINOPHIL / ERYTHROCYTE COUNT / HEMATOCRIT / HEMOGLOBIN / LEUKOCYTE COUNT / LYMPHOCYTE / MEAN CORPUSCULAR HEMOGLOBIN / MEAN CORPUSCULAR HEMOGLOBIN CONCENTRATION / MONOCYTE / NEUTROPHIL / NUCLEATED RED BLOOD CELLS / PLATELET COUNT: tissue Blood; for ALANINE AMINOTRANSFERASE / ALBUMIN / ALKALINE PHOSPHATASE / ASPARTATE AMINOTRANSFERASE / BLOOD UREA NITROGEN / CARBON DIOXIDE / CHLORIDE / CHOLESTEROL / CREATININE / GLUCOSE / LACTATE DEHYDROGENASE / LIPASE / PHOSPHORUS / POTASSIUM / SODIUM / TOTAL BILIRUBIN / TOTAL PROTEIN / URIC ACID: tissue Plasma
# [1] = 50 mg/kg, 72 h, dose level Low, time 3 day
# [2] = 50 mg/kg, 120 h, dose level Low, time 5 day
# [3] = 600 mg/kg, 72 h, dose level High, time 3 day
# [4] = 600 mg/kg, 120 h, dose level High, time 5 day
structure (smiles),measurement,setting,value
N[C@@H]1[C@H]2CN(c3nc4c(cc3F)c(=O)c(C(=O)O)cn4-c3ccc(F)cc3F)C[C@@H]12 [TROVAFLOXACIN],ABSOLUTE BASOPHIL,[1],0 CELLS/uL
same,ABSOLUTE EOSINOPHIL,[1],332.33 CELLS/uL
same,ABSOLUTE LYMPHOCYTE,[1],13247 CELLS/uL
same,ABSOLUTE MONOCYTE,[1],338.33 CELLS/uL
same,ABSOLUTE SEGMENTED NEUTROPHIL,[1],2282.33 CELLS/uL
same,BASOPHIL,[1],0%
same,EOSINOPHIL,[1],2%
same,ERYTHROCYTE COUNT,[1],5.64 x10E6/uL
same,HEMATOCRIT,[1],34.17%
same,HEMOGLOBIN,[1],12.5 G/DL
same,LEUKOCYTE COUNT,[1],16.2 x10E3/uL
same,LYMPHOCYTE,[1],82%
same,MEAN CORPUSCULAR HEMOGLOBIN,[1],22.13 pg
same,MEAN CORPUSCULAR HEMOGLOBIN CONCENTRATION,[1],36.57 G/DL
same,MONOCYTE,[1],2%
same,NEUTROPHIL,[1],14%
same,NUCLEATED RED BLOOD CELLS,[1],0 /100WBC
same,PLATELET COUNT,[1],1160 x10E3/uL
same,ALANINE AMINOTRANSFERASE,[1],50.67 u/L
same,ALBUMIN,[1],4.23 G/DL
same,ALKALINE PHOSPHATASE,[1],421 u/L
same,ASPARTATE AMINOTRANSFERASE,[1],75.33 u/L
same,BLOOD UREA NITROGEN,[1],16 mg/dL
same,CARBON DIOXIDE,[1],27 mmol/L
same,CHLORIDE,[1],102.33 MEQ/L
same,CHOLESTEROL,[1],86.33 mg/dL
same,CREATININE,[1],0.17 mg/dL
same,GLUCOSE,[1],151 mg/dL
same,LACTATE DEHYDROGENASE,[1],114.67 u/L
same,LIPASE,[1],9.33 u/L
same,PHOSPHORUS,[1],13.33 mg/dL
same,POTASSIUM,[1],6.87 MEQ/L
same,SODIUM,[1],148.2 MEQ/L
same,TOTAL BILIRUBIN,[1],0.17 mg/dL
same,TOTAL PROTEIN,[1],6.3 G/DL
same,URIC ACID,[1],1.47 mg/dL
same,ABSOLUTE BASOPHIL,[2],0 CELLS/uL
same,ABSOLUTE EOSINOPHIL,[2],225.67 CELLS/uL
same,ABSOLUTE LYMPHOCYTE,[2],14834.67 CELLS/uL
same,ABSOLUTE MONOCYTE,[2],380.67 CELLS/uL
same,ABSOLUTE SEGMENTED NEUTROPHIL,[2],2392.33 CELLS/uL
same,BASOPHIL,[2],0%
same,EOSINOPHIL,[2],1.33%
same,ERYTHROCYTE COUNT,[2],5.73 x10E6/uL
same,HEMATOCRIT,[2],34.4%
same,HEMOGLOBIN,[2],12.63 G/DL
same,LEUKOCYTE COUNT,[2],17.83 x10E3/uL
same,LYMPHOCYTE,[2],82.67%
same,MEAN CORPUSCULAR HEMOGLOBIN,[2],22.13 pg
same,MEAN CORPUSCULAR HEMOGLOBIN CONCENTRATION,[2],36.73 G/DL
same,MONOCYTE,[2],2%
same,NEUTROPHIL,[2],14%
same,NUCLEATED RED BLOOD CELLS,[2],0 /100WBC
same,PLATELET COUNT,[2],1198 x10E3/uL
same,ALANINE AMINOTRANSFERASE,[2],44.67 u/L
same,ALBUMIN,[2],4 G/DL
same,ALKALINE PHOSPHATASE,[2],375.33 u/L
same,ASPARTATE AMINOTRANSFERASE,[2],95 u/L
same,BLOOD UREA NITROGEN,[2],15.33 mg/dL
same,CARBON DIOXIDE,[2],27.67 mmol/L
same,CHLORIDE,[2],100.33 MEQ/L
same,CHOLESTEROL,[2],77.67 mg/dL
same,CREATININE,[2],0.14 mg/dL
same,GLUCOSE,[2],165.33 mg/dL
same,LACTATE DEHYDROGENASE,[2],482.33 u/L
same,LIPASE,[2],9 u/L
same,PHOSPHORUS,[2],13.63 mg/dL
same,POTASSIUM,[2],6.38 MEQ/L
same,SODIUM,[2],144.47 MEQ/L
same,TOTAL BILIRUBIN,[2],0.13 mg/dL
same,TOTAL PROTEIN,[2],5.9 G/DL
same,URIC ACID,[2],2.13 mg/dL
same,ABSOLUTE BASOPHIL,[3],0 CELLS/uL
same,ABSOLUTE EOSINOPHIL,[3],206 CELLS/uL
same,ABSOLUTE LYMPHOCYTE,[3],11774.33 CELLS/uL
same,ABSOLUTE MONOCYTE,[3],306 CELLS/uL
same,ABSOLUTE SEGMENTED NEUTROPHIL,[3],3013.67 CELLS/uL
same,BASOPHIL,[3],0%
same,EOSINOPHIL,[3],1.33%
same,ERYTHROCYTE COUNT,[3],5.75 x10E6/uL
same,HEMATOCRIT,[3],34.53%
same,HEMOGLOBIN,[3],12.7 G/DL
same,LEUKOCYTE COUNT,[3],15.3 x10E3/uL
same,LYMPHOCYTE,[3],78.33%
same,MEAN CORPUSCULAR HEMOGLOBIN,[3],22.13 pg
same,MEAN CORPUSCULAR HEMOGLOBIN CONCENTRATION,[3],36.77 G/DL
same,MONOCYTE,[3],2%
same,NEUTROPHIL,[3],18.33%
same,NUCLEATED RED BLOOD CELLS,[3],0 /100WBC
same,PLATELET COUNT,[3],1258 x10E3/uL
same,ALANINE AMINOTRANSFERASE,[3],35.33 u/L
same,ALBUMIN,[3],4.27 G/DL
same,ALKALINE PHOSPHATASE,[3],290.67 u/L
same,ASPARTATE AMINOTRANSFERASE,[3],69.67 u/L
same,BLOOD UREA NITROGEN,[3],19.67 mg/dL
same,CARBON DIOXIDE,[3],25.33 mmol/L
same,CHLORIDE,[3],106.33 MEQ/L
same,CHOLESTEROL,[3],81.33 mg/dL
same,CREATININE,[3],0.16 mg/dL
same,GLUCOSE,[3],145 mg/dL
same,LACTATE DEHYDROGENASE,[3],197 u/L
same,LIPASE,[3],9.33 u/L
same,PHOSPHORUS,[3],13.8 mg/dL
same,POTASSIUM,[3],6.71 MEQ/L
same,SODIUM,[3],151.87 MEQ/L
same,TOTAL BILIRUBIN,[3],0.17 mg/dL
same,TOTAL PROTEIN,[3],6.43 G/DL
same,URIC ACID,[3],1.63 mg/dL
same,ABSOLUTE BASOPHIL,[4],0 CELLS/uL
same,ABSOLUTE EOSINOPHIL,[4],229.8 CELLS/uL
same,ABSOLUTE LYMPHOCYTE,[4],12826.8 CELLS/uL
same,ABSOLUTE MONOCYTE,[4],343 CELLS/uL
same,ABSOLUTE SEGMENTED NEUTROPHIL,[4],1100.4 CELLS/uL
same,BASOPHIL,[4],0%
same,EOSINOPHIL,[4],1.6%
same,ERYTHROCYTE COUNT,[4],5.94 x10E6/uL
same,HEMATOCRIT,[4],35.56%
same,HEMOGLOBIN,[4],12.98 G/DL
same,LEUKOCYTE COUNT,[4],14.5 x10E3/uL
same,LYMPHOCYTE,[4],88.4%
same,MEAN CORPUSCULAR HEMOGLOBIN,[4],21.88 pg
same,MEAN CORPUSCULAR HEMOGLOBIN CONCENTRATION,[4],36.5 G/DL
same,MONOCYTE,[4],2.4%
same,NEUTROPHIL,[4],7.6%
same,NUCLEATED RED BLOOD CELLS,[4],0 /100WBC
same,PLATELET COUNT,[4],1294.2 x10E3/uL
same,ALANINE AMINOTRANSFERASE,[4],42 u/L
same,ALBUMIN,[4],4.16 G/DL
same,ALKALINE PHOSPHATASE,[4],348.4 u/L
same,ASPARTATE AMINOTRANSFERASE,[4],67.4 u/L
same,BLOOD UREA NITROGEN,[4],17.8 mg/dL
same,CARBON DIOXIDE,[4],29.6 mmol/L
same,CHLORIDE,[4],102 MEQ/L
same,CHOLESTEROL,[4],83 mg/dL
same,CREATININE,[4],0.15 mg/dL
same,GLUCOSE,[4],156 mg/dL
same,LACTATE DEHYDROGENASE,[4],129.8 u/L
same,LIPASE,[4],9.8 u/L
same,PHOSPHORUS,[4],14.22 mg/dL
same,POTASSIUM,[4],6.78 MEQ/L
same,SODIUM,[4],146.28 MEQ/L
same,TOTAL BILIRUBIN,[4],0.14 mg/dL
same,TOTAL PROTEIN,[4],6 G/DL
same,URIC ACID,[4],1.88 mg/dL
